For ten compounds, EC50 results are on record in patent US12180197B2, “GLP-1R modulating compounds” (Gilead Sciences, Inc., priority 2021, dated 2024).

In test [1] the target is T1, GLP-1R (Homo sapiens, UniProt P43220). Description: GLP-1R Activation - cAMP Assay 2. The settings on record: cAMP increase in CHO cells stably expressing GLP-1R; pre-spotted agonists; assay buffer or 100% Human Plasma (not given); 30 minutes. The test is classed as cell-based. As for the experimental part:
GLP-1R Activation—cAMP Assay 2
GLP-1R activation by small molecule agonists is quantified by measuring cAMP increase in CHO cells stably expressing GLP-1R (MultiSpan product #C1267-1a). 50 nL of agonists are pre-spotted in a 10 point dose response onto 384-well plate (Corning product #CL3826) using the Labcyte Echo System. The cells are harvested and plated in assay buffer (HBSS (Corning product #21-023-CV) with 20 mM Hepes (Gibco product #15630-080) and 0.1% BSA (Rockland Immunochemicals product #BSA-1000)) or 100% Human Plasma (Innovative Research product #50-643-396) at 1,000 cells/well, 10 μL/well, onto the pre-spotted plates. The cells are then incubated for 30 minutes at 37° C., 5% CO2. cAMP concentration increase is then detected using Cisbio's cAMP Gs Dynamic Kit (product #62AM4PEC) according to the manufacturer's protocol. The response is plotted against the log of the agonist concentration and fitted to a sigmoidal equation to determine the EC50.

The target of test [2] is T1, GLP-1R. Description: GLP-1R Activation - cAMP Assay 1. The test is classed as cell-based. The conditions noted are these: cAMP increase in CHO cells stably expressing GLP-1R; 30 minutes incubation; 10 point dose response. As for the experimental part:
GLP-1R Activation—cAMP Assay 1
GLP-1R activation by a compound of the present disclosure was quantified by measuring cAMP increase in CHO cells stably expressing GLP-1R (MultiSpan product #C1267-1a). The cells were harvested and plated in growth medium (DMEM/F-12 (Corning product #10-090-CV) supplemented with 10% FBS (HyClone product #SH30071-03), penicillin/streptomycin (Corning product #30-002CI) and 10 µg/ml puromycin (Gibco product #A11138-03)) at 1,000 cells/well in a 384-well plate (Greiner product #781080). The cells were then incubated overnight at 37° C., 5% CO2. The next day, the medium was removed and the cells were washed with DPBS (Corning product #21-031-CM) before adding the assay medium (HBSS, Corning product #21-023-CV) with 20 mM Hepes (Gibco product #15630-080) and 0.1% BSA (Rockland Immunochemicals product #BSA-1000)). Following the medium change, the cells were incubated for 1 hour at 37° C., 5% CO2. The tested GLP-1 compound was added to the cells in a 10 point dose response followed by a 30 minutes incubation at 37° C., 5% CO2. cAMP concentration increase was then detected using Cisbio's cAMP Gs Dynamic Kit (product #62AM4PEC) according to the manufacturer's protocol. The response was plotted against the log of the agonist concentration and fitted to a sigmoidal equation to determine the EC50.

Some results are limits rather than exact numbers.

By EC50 is commonly meant the concentration needed to bring the measured effect to its halfway point. A high value points to lower potency in that assay.

T1 sequence (P43220 24-463): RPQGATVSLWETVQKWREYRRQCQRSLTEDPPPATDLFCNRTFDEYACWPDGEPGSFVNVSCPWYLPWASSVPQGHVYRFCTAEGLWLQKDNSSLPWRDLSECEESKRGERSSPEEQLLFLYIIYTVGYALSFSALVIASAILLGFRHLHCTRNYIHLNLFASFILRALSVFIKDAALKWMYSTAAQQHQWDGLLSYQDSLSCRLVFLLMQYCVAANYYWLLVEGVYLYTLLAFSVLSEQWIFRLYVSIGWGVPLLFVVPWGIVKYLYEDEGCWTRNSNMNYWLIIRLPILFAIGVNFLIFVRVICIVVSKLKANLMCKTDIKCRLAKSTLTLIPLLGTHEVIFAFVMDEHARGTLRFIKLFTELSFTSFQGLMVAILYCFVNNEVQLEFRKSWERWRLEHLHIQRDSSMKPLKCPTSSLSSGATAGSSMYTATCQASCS

`COCCn1c(CN2CCC(c3cccc(OCc4ccc(-c5cnn(C(F)F)c5)cc4F)n3)CC2)nc2ccc(C(=O)O)cc21` [Example 16, 2-((4-(6-((4-(1-(difluoromethyl)-1H-pyrazol-4-yl)-2-fluorobenzyl)oxy)pyridin-2-yl)piperidin-1-yl)methyl)-1-(2-methoxyethyl)-1H-benzo[d]imidazole-6-carboxylic acid] returned an EC50 on GLP-1R [1] of 11.8 nM.
In the case of `COCCn1c(CN2CCC(c3cccc(OCc4ccc(-c5cnn(C)c5)cc4F)n3)CC2)nc2ccc(C(=O)O)cc21` [Example 21, 2-((4-(6-((2-fluoro-4-(1-methyl-1H-pyrazol-4-yl)benzyl)oxy)pyridin-2-yl)piperidin-1-yl)methyl)-1-(2-methoxyethyl)-1H-benzo[d]imidazole-6-carboxylic acid], on GLP-1R [1], the EC50 came out at 7.2 nM.
The same measure, in the same setting: the figure for `O=C(O)c1ccc2nc(CN3CCC(c4cccc(OCc5ccc(-c6cnn(C(F)F)c6)cc5F)n4)CC3)n(C[C@@H]3CCO3)c2c1` [Example 19, (S)-2-((4-(6-((4-(1-(difluoromethyl)-1H-pyrazol-4-yl)-2-fluorobenzyl)oxy)pyridin-2-yl)piperidin-1-yl)methyl)-1-(oxetan-2-ylmethyl)-1H-benzo[d]imidazole-6-carboxylic acid] is 0.2 nM.
`COCCn1c(CN2CCC(c3cccc(OCc4ccc(Cl)c5occc45)n3)CC2)nc2ccc(C(=O)O)cc21` [Example 31, 2-((4-(6-((7-chlorobenzofuran-4-yl)methoxy)pyridin-2-yl)piperidin-1-yl)methyl)-1-(2-methoxyethyl)-1H-benzo[d]imidazole-6-carboxylic acid]: a half-maximal effect at GLP-1R [2] (EC50) was put at 29 nM.
In turn, `COCCn1c(CN2CCC(c3cccc(OCc4cccc5[nH]cnc45)n3)CC2)nc2ccc(C(=O)O)cc21` [Example 33, 2-((4-(6-((1H-benzo[d]imidazol-4-yl)methoxy)pyridin-2-yl)piperidin-1-yl)methyl)-1-(2-methoxyethyl)-1H-benzo[d]imidazole-6-carboxylic acid] came in with an EC50 at GLP-1R [2] of over 10000 nM.
In the case of `COCCn1c(CN2CCC(c3cccc(OCc4ccc5cnccc5c4)n3)CC2)nc2ccc(C(=O)O)cc21` [Example 26, 2-[[4-[6-(6-isoquinolylmethoxy)-2-pyridyl]-1-piperidyl]methyl]-3-(2-methoxyethyl)benzimidazole-5-carboxylic acid], the EC50 at GLP-1R [2] was 41.3 nM.
On the same count and under the same terms, the figure for `COCCn1c(CN2CCC(c3cccc(OCc4ccc(C(C)(C)O)cc4)n3)CC2)nc2ccc(C(=O)O)cc21` [Example 29, 2-((4-(6-((4-(2-hydroxypropan-2-yl)benzyl)oxy)pyridin-2-yl)piperidin-1-yl)methyl)-1-(2-methoxyethyl)-1H-benzo[d]imidazole-6-carboxylic acid] is 1440 nM.
Still for that read-out and setting: the figure for `COCCn1c(CN2CCC(c3cccc(OCc4ccc(-c5ccccc5)cc4)n3)CC2)nc2ccc(C(=O)O)cc21` [Example 12, 2-((4-(6-([1,1′-biphenyl]-4-ylmethoxy)pyridin-2-yl)piperidin-1-yl)methyl)-1-(2-methoxyethyl)-1H-benzo[d]imidazole-6-carboxylic acid] is 1070 nM.
Same read-out and setting: under `COCCn1c(CN2CCC(c3cccc(OCc4cccc(-c5noc(C)n5)c4)n3)CC2)nc2ccc(C(=O)O)cc21` [Example 10, 1-(2-methoxyethyl)-2-((4-(6-((3-(5-methyl-1,2,4-oxadiazol-3-yl)benzyl)oxy)pyridin-2-yl)piperidin-1-yl)methyl)-1H-benzo[d]imidazole-6-carboxylic acid] stands 66.9 nM; under `C#Cc1ccc(COc2cccc(C3CCN(Cc4nc5ccc(C(=O)O)cc5n4CCOC)CC3)n2)cc1` [Example 13, 2-((4-(6-((4-ethynylbenzyl)oxy)pyridin-2-yl)piperidin-1-yl)methyl)-1-(2-methoxyethyl)-1H-benzo[d]imidazole-6-carboxylic acid], 22.2 nM.
